pIC50: −log10 of the molar value.
Target: T1, human TLR7 (Homo sapiens, UniProt Q9NYK1)
T1 sequence (Q9NYK1 27-1049): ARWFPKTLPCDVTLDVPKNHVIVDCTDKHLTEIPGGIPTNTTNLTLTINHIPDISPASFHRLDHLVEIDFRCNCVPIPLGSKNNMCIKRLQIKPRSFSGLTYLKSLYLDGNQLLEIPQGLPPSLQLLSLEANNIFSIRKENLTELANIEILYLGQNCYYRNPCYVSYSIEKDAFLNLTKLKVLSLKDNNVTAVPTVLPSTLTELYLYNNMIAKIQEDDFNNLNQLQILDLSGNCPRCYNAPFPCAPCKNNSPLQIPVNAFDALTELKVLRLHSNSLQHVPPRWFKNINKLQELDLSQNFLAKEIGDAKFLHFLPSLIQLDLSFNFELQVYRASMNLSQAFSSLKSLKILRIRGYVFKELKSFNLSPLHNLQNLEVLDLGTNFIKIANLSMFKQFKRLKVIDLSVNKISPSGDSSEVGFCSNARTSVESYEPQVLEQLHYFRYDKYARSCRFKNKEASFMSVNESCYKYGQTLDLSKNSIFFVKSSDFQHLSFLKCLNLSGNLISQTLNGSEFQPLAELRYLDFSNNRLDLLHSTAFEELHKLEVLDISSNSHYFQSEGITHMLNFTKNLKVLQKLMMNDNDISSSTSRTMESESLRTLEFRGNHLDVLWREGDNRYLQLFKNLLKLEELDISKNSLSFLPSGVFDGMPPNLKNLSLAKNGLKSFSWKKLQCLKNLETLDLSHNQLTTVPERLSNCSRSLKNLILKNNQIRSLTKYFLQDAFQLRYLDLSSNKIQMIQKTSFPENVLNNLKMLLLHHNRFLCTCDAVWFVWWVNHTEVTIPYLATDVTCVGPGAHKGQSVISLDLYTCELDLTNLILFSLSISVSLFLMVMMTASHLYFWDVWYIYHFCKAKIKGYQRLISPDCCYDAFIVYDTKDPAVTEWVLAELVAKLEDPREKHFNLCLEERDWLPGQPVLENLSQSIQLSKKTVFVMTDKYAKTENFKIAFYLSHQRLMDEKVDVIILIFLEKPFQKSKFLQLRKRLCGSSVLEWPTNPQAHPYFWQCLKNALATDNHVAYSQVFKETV
Assay: HEK293-Blue-hTLR-7 cells assay (SEAP reporter, R848 stimulation)
Format: cell-based
Conditions: HEK293-Blue-hTLR7 cells, R848 ligand, 20 hrs incubation
Excerpt: A stable HEK293-Blue-hTLR-7 cell line was purchased from InvivoGen (Cat. #: hkb-htlr7, San Diego, Calif., USA). These cells were originally designed for studying the stimulation of human TLR7 by monitoring the activation of NF-κB. A SEAP (secreted embryonic alkaline phosphatase) reporter gene was placed under the control of the IFN-β minimal promoter fused to five NF-κB and AP-1-binding sites. The SEAP was induced by activating NF-κB and AP-1 via stimulating HEK-Blue hTLR7 cells with TLR7 ligands. Therefore the reporter expression was declined by TLR7 antagonist under the stimulation of a ligand, such as R848 (Resiquimod), for incubation of 20 hrs. The cell culture supernatant SEAP reporter activity was determined using QUANTI-Blue™ kit (Cat. #: rep-qb1, Invivogen, San Diego, Ca, USA) at a wavelength of 640 nm, a detection medium that turns purple or blue in the presence of alkaline phosphatase.
HEK293-Blue-hTLR7 cells were incubated at a density of 250,000˜450,000 cells/mL in a volume of 170 μL in a 96-well plate in Dulbecco's Modified Eagle's medium (DMEM) containing 4.5 g/L glucose, 50 U/mL penicillin, […], […], 2 mM L-glutamine, 10% (v/v) heat-inactivated fetal bovine serum with addition of 20 μL test compound in a serial dilution in the presence of final DMSO at 1% and 10 μL of 20 uM R848 in above DMEM, perform incubation under 37° C. in a CO2 incubator for 20 hrs. Then 20 μL of the supernatant from each well was incubated with 180 μL Quanti-blue substrate solution at 37° C. for 2 hrs and the absorbance was read at 620˜655 nm using a spectrophotometer. The signalling pathway that TLR7 activation leads to downstream NF-κB activation has been widely accepted, and therefore similar reporter assay was modified for evaluating TLR7 antagonist.

Row | pIC50 | SMILES
1 | 7.11 | C[C@@H]1CN(c2ccc(C#N)n3nccc23)C[C@H](CN2CCC3NCCC3C2)O1 (stereo partly drawn) [Example 41, 4-[(2S,6R)-2-(1,2,3,3a,4,6,7,7a-octahydropyrrolo[3,2-c]pyridin-5-ylmethyl)-6-methyl-morpholin-4-yl]pyrazolo[1,5-a]pyridine-7-carbonitrile]
2 | 6.96 | C[C@@H]1CN(c2ccc(C#N)n3nccc23)C[C@H](CN2CCC3(CCCNC3)C2)O1 (stereo partly drawn) [Example 25, 4-[(2S,6R)-2-(2,9-diazaspiro[4.5]decan-2-ylmethyl)-6-methyl-morpholin-4-yl]pyrazolo[1,5-a]pyridine-7-carbonitrile]
3 | 6.64 | CC1CNCCN1C[C@H]1CN(c2ccc(C#N)n3nccc23)C[C@@H](C)O1 (single isomer, unassigned) [Example 50A]
4 | 6.39 | C[C@@H]1CN(c2ccc(C#N)n3nccc23)C[C@H](CN2CCCC3(CCNCC3)C2)O1 [Example 32, 4-[(2S,6R)-2-(2,9-diazaspiro[5.5]undecan-2-ylmethyl)-6-methyl-morpholin-4-yl]pyrazolo[1,5-a]pyridine-7-carbonitrile]
5 | 8.15 | C[C@@H]1CN(c2ccc(C#N)n3nccc23)C[C@H](CN2CCNCC2Cc2ccccc2)O1 (stereo partly drawn) [Example 59, 4-[(2S,6R)-2-[(2-benzylpiperazin-1-yl)methyl]-6-methyl-morpholin-4-yl]pyrazolo[1,5-a]pyridine-7-carbonitrile]
6 | 7.36 | CC1CN(C[C@H]2CN(c3ccc(C#N)n4nccc34)C[C@@H](C)O2)CCN1 (stereo partly drawn) [Example 28, 4-[(2R,6S)-2-methyl-6-[(3-methylpiperazin-1-yl)methyl]morpholin-4-yl]pyrazolo[1,5-a]pyridine-7-carbonitrile]
7 | 7.27 | C[C@@H]1CN(c2ccc(C#N)n3nccc23)C[C@H](CN2CCNCC2)O1 [Example 5, 4-[(2R,6S)-2-methyl-6-(piperazin-1-ylmethyl)morpholin-4-yl]pyrazolo[1,5-a]pyridine-7-carbonitrile]
8 | 6.80 | C[C@@H]1CN(c2ccc(C#N)n3nccc23)C[C@H](CN2CC3(CC(N)C3)C2)O1 [Example 11, 4-[(2S,6R)-2-[(6-amino-2-azaspiro[3.3]heptan-2-yl)methyl]-6-methyl-morpholin-4-yl]pyrazolo[1,5-a]pyridine-7-carbonitrile]
9 | 7.04 | C[C@@H]1CN(c2ccc(C#N)n3nccc23)C[C@H](CN2CC3CNCCC32)O1 (stereo partly drawn) [Example 52, 4-[(2S,6R)-2-(3,7-diazabicyclo[4.2.0]octan-7-ylmethyl)-6-methyl-morpholin-4-yl]pyrazolo[1,5-a]pyridine-7-carbonitrile]
10 | 7.01 | C[C@@H]1CN(c2ccc(C#N)n3nccc23)C[C@H](CN2CCC3(CCNC3)C2=O)O1 (stereo partly drawn) [Example 21, 4-[(2R,6R)-2-methyl-6-[(1-oxo-2,7-diazaspiro[4.4]nonan-2-yl)methyl]morpholin-4-yl]pyrazolo[1,5-a]pyridine-7-carbonitrile]
11 | 6.40 | C[C@@H]1CN(c2ccc(C#N)n3nccc23)C[C@H](CN2CCC(CCN)CC2)O1 [Example 13, 4-[(2S,6R)-2-[[4-(2-aminoethyl)-1-piperidyl]methyl]-6-methyl-morpholin-4-yl]pyrazolo[1,5-a]pyridine-7-carbonitrile]
12 | 7.00 | C[C@@H]1CN(c2ccc(C#N)n3nccc23)C[C@H](CN2CCC(N3CCCCC3)CC2)O1 [Example 16, 4-[(2R,6S)-2-methyl-6-[[4-(1-piperidyl)-1-piperidyl]methyl]morpholin-4-yl]pyrazolo[1,5-a]pyridine-7-carbonitrile]
13 | 6.70 | C[C@@H]1CN(c2ccc(C#N)n3nccc23)C[C@H](CN2CCC3(CCNC3)C2)O1 (stereo partly drawn) [Example 6, 4-[(2S,6R)-2-(2,7-diazaspiro[4.4]nonan-2-ylmethyl)-6-methyl-morpholin-4-yl]pyrazolo[1,5-a]pyridine-7-carbonitrile]
14 | 6.35 | C[C@@H]1CN(c2ccc(C#N)n3nccc23)C[C@H](CN2CCOC3(CCNCC3)C2)O1 [Example 71, 4-[(2R,6S)-2-methyl-6-(1-oxa-4,9-diazaspiro[5.5]undecan-4-ylmethyl)morpholin-4-yl]pyrazolo[1,5-a]pyridine-7-carbonitrile]
15 | 6.74 | C[C@@H]1CN(c2ccc(C#N)n3nccc23)C[C@H](CN2CCC3(CCCCN3)CC2)O1 [Example 47, 4-[(2S,6R)-2-(1,9-diazaspiro[5.5]undecan-9-ylmethyl)-6-methyl-morpholin-4-yl]pyrazolo[1,5-a]pyridine-7-carbonitrile]
16 | 6.57 | C[C@@H]1CN(c2ccc(C#N)n3nccc23)C[C@H](CN2CC3CCNCC32)O1 (stereo partly drawn) [Example 56, 4-[(2S,6R)-2-(3,8-diazabicyclo[4.2.0]octan-8-ylmethyl)-6-methyl-morpholin-4-yl]pyrazolo[1,5-a]pyridine-7-carbonitrile]
17 | 6.34 | C[C@@H]1CN(c2ccc(C#N)n3nccc23)C[C@H](CN2CCCC3(CNC3)C2)O1 [Example 33, 4-[(2S,6R)-2-(2,6-diazaspiro[3.5]nonan-6-ylmethyl)-6-methyl-morpholin-4-yl]pyrazolo[1,5-a]pyridine-7-carbonitrile]
18 | 6.08 | C[C@@H]1CN(c2ccc(C#N)n3nccc23)C[C@H](CN2CC(N)C(F)(F)C2)O1 (stereo partly drawn) [Example 35, 4-[(2S,6R)-2-[(4-amino-3,3-difluoro-pyrrolidin-1-yl)methyl]-6-methyl-morpholin-4-yl]pyrazolo[1,5-a]pyridine-7-carbonitrile]
19 | 7.34 | C[C@@H]1CN(c2ccc(C#N)n3nccc23)C[C@H](CN2CC3CCC2CN3)O1 (stereo partly drawn) [Example 30, 4-[(2S,6R)-2-(2,5-diazabicyclo[2.2.2]octan-2-ylmethyl)-6-methyl-morpholin-4-yl]pyrazolo[1,5-a]pyridine-7-carbonitrile]
20 | 7.08 | C[C@@H]1CN(c2ccc(C#N)n3nccc23)C[C@H](CN2CC3(CCCNC3)C2)O1 [Example 10, 4-[(2S,6R)-2-(2,8-diazaspiro[3.5]nonan-2-ylmethyl)-6-methyl-morpholin-4-yl]pyrazolo[1,5-a]pyridine-7-carbonitrile]
21 | 6.64 | C[C@@H]1CN(c2ccc(C#N)n3nccc23)C[C@H](CN2CCC3NCC3C2)O1 (stereo partly drawn) [Example 70, 4-[(2S,6R)-2-(3,7-diazabicyclo[4.2.0]octan-3-ylmethyl)-6-methyl-morpholin-4-yl]pyrazolo[1,5-a]pyridine-7-carbonitrile]

Row | SMILES | pIC50
22 | C[C@@H]1CN(c2ccc(C#N)n3nccc23)C[C@H](CN2C3CNCC2COC3)O1 [Example 57, 4-[(2R,6S)-2-methyl-6-(3-oxa-7,9-diazabicyclo[3.3.1]nonan-9-ylmethyl)morpholin-4-yl]pyrazolo[1,5-a]pyridine-7-carbonitrile] | 7.14
23 | C[C@@H]1CN(c2ccc(C#N)n3nccc23)C[C@H](CN2CC3CCC(C2)N3)O1 [Example 31, 4-[(2S,6R)-2-(3,8-diazabicyclo[3.2.1]octan-3-ylmethyl)-6-methyl-morpholin-4-yl]pyrazolo[1,5-a]pyridine-7-carbonitrile] | 7.28
24 | C[C@@H]1CN(c2ccc(C#N)n3nccc23)C[C@H](CN2C3COCC2CC(N)C3)O1 (stereo partly drawn) [Example 58, 4-[(2S,6R)-2-[(7-amino-3-oxa-9-azabicyclo[3.3.1]nonan-9-yl)methyl]-6-methyl-morpholin-4-yl]pyrazolo[1,5-a]pyridine-7-carbonitrile] | 7.05
